From patent US9045423B2, “Prophylactic and/or therapeutic agent for anemia comprising tetrahydroquinoline compound as active ingredient” (KOWA COMPANY, LTD., priority 2009, dated 2015)

Legend:
[1] = test system: HepG2 cells derived from human liver cancer; assay: EPO production in HepG2 cells (EPO ELISA of culture supernatant); type: cell-based; conditions: Homo sapiens; for activity at 3 µM: HepG2, 3 μM test compound, 48 hrs, 4% oxygen, non-stimulated state without compound = 100%, read-out: amount of EPO production, % of control (3 μM); for activity at 10 µM: HepG2, 48 h, final concentration 10 μM, non-stimulated state = 100%, read-out: enhancement of EPO production
Description: HepG2 cells derived from human liver cancer were inoculated in an amount of 5×10^4 cells per well on a 48-well plate, using minimum essential medium (MEM, Sigma-Aldrich Company) containing 10% bovine fetal serum. On the next day, the medium was exchanged with Dulbecco's modified eagle medium (DMEM (Sigma-Aldrich Company)) containing 10% bovine fetal serum without Phenol Red. Then, a test compound dissolved in DMSO was added thereto to obtain a final concentration of 3 μM or 10 μM, and the amount of medium was adjusted to 400 μL per well. The cells were incubated for 48 hrs in a CO2 incubator in which the oxygen concentration was adjusted to 4%, and then the culture supernatant was collected. The EPO concentration in the culture supernatant was immediately measured using an EPO ELISA kit (Roche Diagnostics GmbH). The method was carried out according to the operation manual.
The amount of EPO production in a non-stimulated state where no compounds were added, was designated as 100%, and the amount of EPO production (% of control) induced by each of the compounds was determined.

[2] = test system: K562 cells, a human proerythroblast cell line; assay: Hemoglobin production in K562 cells (fluorescence of the porphyrin ring); type: cell-based; conditions: Homo sapiens, K562, 144 h; 6 μM test compound, 3 + 3 days incubation; non-stimulated state without compound = 100; read-out: amount of hemoglobin, % of control (6 μM)
Description: K562 cells (obtained from ATCC), which is a human proerythroblast cell line, were inoculated at a concentration of 1×10^5 cells/1 mL in each well of a 24-well plate, using complete medium (RPMI-1640 medium containing 10% bovine fetal serum), and 1 μL of a test compound at a 1000-fold concentration was added to each well. Subsequently, the cells were incubated for 3 days in a CO2 incubator (37° C., 5% CO2). The medium was exchanged, and the cells were further incubated for 3 days. The cells were collected and counted. Subsequently, the amount of hemoglobin produced in the cells was determined by adjusting the number of cells to 3×10^5 cells, and measuring the fluorescence of the porphyrin ring. That is, the cells collected by centrifugation were suspended in 500 μL of 2 M oxalic acid, and were heated to boil for 30 minutes. The cells were cooled, and then the fluorescence intensity was measured by using a fluorescence microplate reader (Spectra MAX GeminiEM; Molecular Devices Corp.) ([…]). The amount of hemoglobin in a non-stimulated state where no compound was added was designated as 100-, and the amount of hemoglobin (% of control) produced as induced by each of the compounds was determined.

Structure (SMILES) | activity at 3 µM [1] | activity at 6 µM [2] | activity at 10 µM [1]
CC(=O)N1c2ccc(F)cc2C(Nc2ccc(C(=O)O)cc2)CC1C (stereo not drawn) [Compound 137, 1-Acetyl-6-fluoro-4-[(4-carboxy-phenyl)amino]-2-methyl-1,2,3,4-tetrahydroquinoline] | 110% | 190% | –
CC(=O)N1c2ccc(C(=O)Nc3cccnc3)cc2C(Nc2ccc(Cl)cc2)CC1C (stereo not drawn) [Compound 131, 1-Acetyl-4-[(4-chlorophenyl)-amino]-2-methyl-N-(3-pyridyl)-1,2,3,4-tetrahydroquinoline-6-carboxamide] | 153% | 263% | –
CC(=O)N1c2ccc(C(N)=O)cc2C(Nc2ccc(-c3ncco3)cc2)CC1C (stereo not drawn) [Compound 169, 1-Acetyl-2-methyl-4-{[4-(oxazol-2-yl)phenyl]amino}-1,2,3,4-tetrahydroquinoline-6-carboxamide] | – | 243% | 120%
CONC(=O)c1ccc2c(c1)C(Nc1ccc(N3CCOCC3)cc1)CC(C)N2C(C)=O (stereo not drawn) [Compound 135, 1-Acetyl-4-[(4-morpholinophenyl)-amino]-N-methoxy-2-methyl-1,2,3,4-tetrahydroquinoline-6-carboxamide] | 124% | 178% | –
CCOC(=O)c1ccc2c(c1)C(Nc1ccc(C3CCCCC3)cc1)CC(C)N2C(C)=O (stereo not drawn) [Compound 144, Ethyl 1-Acetyl-4-[(4-cyclohexylphenyl)-amino]-2-methyl-1,2,3,4-tetrahydroquinoline-6-carboxylate] | 180% | 338% | –
CC(=O)N1c2ccccc2C(Nc2ccc3ocnc3c2)CC1C (stereo not drawn) [Compound 136, 1-Acetyl-4-[(benzoxazol-5-yl)-amino]-2-methyl-1,2,3,4-tetrahydroquinoline] | 141% | 136% | –
CNC(=O)c1ccc2c(c1)C(Nc1ccc(-c3csc(C)n3)cc1)CC(C)N2C(C)=O (stereo not drawn) [Compound 165, 1-Acetyl-N,2-dimethyl-4-{[4-(2-methylthiazol-4-yl)phenyl]amino}-1,2,3,4-tetrahydroquinoline-6-carboxamide] | – | 304% | 159%
CC(=O)N1c2ccc(N3CCOCC3)cc2C(Nc2ccc(N3CCOCC3)cc2)CC1C (stereo not drawn) [Compound 161, 1-Acetyl-2-methyl-6-morpholino-4-[(4-morpholinophenyl)-amino]-1,2,3,4-tetrahydroquinoline] | 351% | 308% | –
CC(=O)N1c2ccc(C(N)=O)cc2C(Nc2cccc(N3CCOCC3)c2)CC1C (stereo not drawn) [Compound 181, 1-Acetyl-2-methyl-4-[(3-morpholinophenyl)amino]-1,2,3,4-tetrahydroquinoline-6-carboxamide] | 162% | 382% | –
CC(=O)N1c2ccc(C(=O)NC3CCCCC3)cc2C(Nc2ccc(N3CCOCC3)cc2)CC1C (stereo not drawn) [Compound 178, 1-Acetyl-N-cyclohexyl-2-methyl-4-[(4-morpholinophenyl)-amino]-1,2,3,4-tetrahydroquinoline-6-carboxamide] | 370% | 388% | –
CNC(=O)c1ccc2c(c1)C(Nc1ccc(C3CCCCC3)cc1)CC(C)N2C(C)=O (stereo not drawn) [Compound 146, 1-Acetyl-4-[(4-cyclohexylphenyl)-amino]-N,2-dimethyl-1,2,3,4-tetrahydroquinoline-6-carboxamide] | 152% | 208% | –
CC(=O)N1c2ccccc2C(Oc2ccc(NS(C)(=O)=O)cc2)CC1C (stereo not drawn) [Compound 143, N-{4-[(1-acetyl-2-methyl-1,2,3,4-tetrahydroquinolin-4-yl)oxy]-phenyl}methanesulfonamide] | 130% | 396% | –
CNC(=O)c1ccc2c(c1)C(Nc1ccc(-c3cnns3)cc1)CC(C)N2C(C)=O (stereo not drawn) [Compound 174, 1-Acetyl-N,2-dimethyl-4-{[4-(1,2,3-thiadiazol-5-yl)-phenyl]amino}-1,2,3,4-tetrahydroquinoline-6-carboxamide] | 218% | 163% | –
CC(=O)N1c2ccc(C(N)=O)cc2C(Nc2ccc(C3CCCCC3)cc2)CC1C (stereo not drawn) [Compound 147, 1-Acetyl-4-[(4-cyclohexylphenyl)-amino]-2-methyl-1,2,3,4-tetrahydroquinoline-6-carboxamide] | – | 160% | 130%
CC(=O)N1c2ccc(C(N)=O)cc2C(Oc2ccc(Cl)cc2)CC1C (stereo not drawn) [Compound 142, 1-Acetyl-4-(4-chlorophenoxy)-2-methyl-1,2,3,4-tetrahydro-quinoline-6-carboxamide] | 129% | 478% | –
CC(=O)N1c2ccc(C(N)=O)cc2C(Nc2ccc(-c3cnns3)cc2)CC1C (stereo not drawn) [Compound 173, 1-Acetyl-2-methyl-4-{[4-(1,2,3-thiadiazol-5-yl)-phenyl]amino}-1,2,3,4-tetrahydroquinoline-6-carboxamide] | 323% | 158% | –
CCOC(=O)c1ccc2c(c1)C(Nc1ccc(-c3ncco3)cc1)CC(C)N2C(C)=O (stereo not drawn) [Compound 167, Ethyl 1-Acetyl-2-methyl-4-{[4-(oxazol-2-yl)phenyl]-amino}-1,2,3,4-tetrahydroquinoline-6-carboxylate] | – | 227% | 142%
CCOC(=O)c1ccc2c(c1)C(Nc1ccc(-c3csc(C)n3)cc1)CC(C)N2C(C)=O (stereo not drawn) [Compound 162, Ethyl 1-Acetyl-2-methyl-4-{[4-(2-methylthiazol-4-yl)-phenyl]amino}-1,2,3,4-tetrahydroquinoline-6-carboxylate] | 284% | 316% | –
COC(=O)CCCCCNC(=O)c1ccc2c(c1)C(Nc1ccc(N3CCOCC3)cc1)CC(C)N2C(C)=O (stereo not drawn) [Compound 157, Methyl 6-{1-Acetyl-2-methyl-4-[(4-morpholinophenyl)-amino]-1,2,3,4-tetrahydro-quinoline-6-carboxamido}-hexanoate] | – | 396% | 237%
CC(=O)N1c2ccc(C(=O)NN)cc2C(Nc2ccc(N3CCOCC3)cc2)CC1C (stereo not drawn) [Compound 133, 1-Acetyl-4-[(4-morpholinophenyl)-amino]-2-methyl-1,2,3,4-tetrahydroquinoline-6-carbohydrazide] | 113% | 136% | –
CC(=O)N1c2ccc(N3CCN(S(C)(=O)=O)CC3)cc2C(Nc2ccc(N3CCOCC3)cc2)CC1C (stereo not drawn) [Compound 160, 1-Acetyl-2-methyl-6-[4-(methylsulfonyl)piperazin-1-yl]-4-[(4-morpholino-phenyl)amino]-1,2,3,4-tetrahydroquinoline] | 190% | 259% | –
CC(=O)N1c2ccc(C(N)=O)cc2C(Nc2ccc(-c3csc(C)n3)cc2)CC1C (stereo not drawn) [Compound 164, 1-Acetyl-2-methyl-4-{[4-(2-methylthiazol-4-yl)-phenyl]amino}-1,2,3,4-tetrahydroquinoline-6-carboxamide] | 336% | 367% | –
CC(=O)N1c2ccc(C(=O)O)cc2C(Nc2cccc(N3CCOCC3)c2)CC1C (stereo not drawn) [Compound 179, 1-Acetyl-2-methyl-4-[(3-morpholinophenyl)-amino]-1,2,3,4-tetrahydroquinoline-6-carboxylic acid] | 138% | 124% | –
COC(=O)CCCCCNC(=O)c1ccc2c(c1)C(Nc1ccc(Cl)cc1)CC(C)N2C(C)=O (stereo not drawn) [Compound 158, Methyl 6-{1-acetyl-4-[(4-chloro-phenyl)amino]-2-methyl-1,2,3,4-tetrahydroquin-oline-6-carboxamido}-hexanoate] | – | 411% | 248%
CC(=O)NC(=O)c1ccc2c(c1)C(Nc1ccc(N3CCOCC3)cc1)CC(C)N2C(C)=O (stereo not drawn) [Compound 175, N,1-diacetyl-2-methyl-4-[(4-morpholinophenyl)amino]-1,2,3,4-tetrahydroquinoline-6-carboxamide] | 270% | 275% | –
CC(=O)N1c2ccc(C(=O)O)cc2C(Nc2ccc(-c3ncco3)cc2)CC1C (stereo not drawn) [Compound 168, 1-Acetyl-2-methyl-4-{[4-(oxazol-2-yl)phenyl]-amino}-1,2,3,4-tetrahydroquinoline-6-carboxylic acid] | 144% | 204% | –
CC(=O)N1c2ccc(C(=O)NC(=O)c3ccccc3)cc2C(Nc2ccc(N3CCOCC3)cc2)CC1C (stereo not drawn) [Compound 166, 1-Acetyl-N-benzoyl-2-methyl-4-[(4-morpholinophenyl)-amino]-1,2,3,4-tetrahydroquinoline-6-carboxamide] | 185% | 282% | –
